Laboratory results: patent publication US8268848B2, “Cyclopropane compound” (Eisai R&D Management Co., Ltd., priority 2010, dated 2012)
Read-outs that look alike come from different tables or passages of the source.

Legend:
OX2 = target: T1, OX2 (Homo sapiens, UniProt O43614); experiment: Measurement of orexin receptor-binding ability ([125I]-OX-A, cell membranes, OX2); parameters: expressed in transfected cells; host or cells: CHO cells (membrane preparation); conditions: membranes of recombinant CHO cells expressing OX2, 0.2 nM [125I]-OX-A
T1 sequence (O43614 1-444): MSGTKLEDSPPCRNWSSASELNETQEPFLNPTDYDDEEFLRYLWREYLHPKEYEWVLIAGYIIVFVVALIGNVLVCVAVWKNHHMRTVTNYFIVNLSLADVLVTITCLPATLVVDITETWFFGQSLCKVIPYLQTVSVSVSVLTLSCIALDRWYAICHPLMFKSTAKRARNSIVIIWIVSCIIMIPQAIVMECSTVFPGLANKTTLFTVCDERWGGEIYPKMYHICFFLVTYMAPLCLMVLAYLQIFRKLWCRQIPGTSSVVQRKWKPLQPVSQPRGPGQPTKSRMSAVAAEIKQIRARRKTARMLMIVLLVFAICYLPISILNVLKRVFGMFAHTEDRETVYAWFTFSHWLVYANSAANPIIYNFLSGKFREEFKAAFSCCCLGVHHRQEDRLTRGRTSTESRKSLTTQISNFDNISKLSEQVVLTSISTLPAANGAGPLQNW

OX1 = target: T2, OX1 (Homo sapiens, UniProt O43613); experiment: Measurement of orexin receptor-binding ability ([125I]-OX-A, cell membranes, OX1); parameters: expressed in transfected cells; host or cells: CHO cells (membrane preparation)
T2 sequence (O43613 1-425): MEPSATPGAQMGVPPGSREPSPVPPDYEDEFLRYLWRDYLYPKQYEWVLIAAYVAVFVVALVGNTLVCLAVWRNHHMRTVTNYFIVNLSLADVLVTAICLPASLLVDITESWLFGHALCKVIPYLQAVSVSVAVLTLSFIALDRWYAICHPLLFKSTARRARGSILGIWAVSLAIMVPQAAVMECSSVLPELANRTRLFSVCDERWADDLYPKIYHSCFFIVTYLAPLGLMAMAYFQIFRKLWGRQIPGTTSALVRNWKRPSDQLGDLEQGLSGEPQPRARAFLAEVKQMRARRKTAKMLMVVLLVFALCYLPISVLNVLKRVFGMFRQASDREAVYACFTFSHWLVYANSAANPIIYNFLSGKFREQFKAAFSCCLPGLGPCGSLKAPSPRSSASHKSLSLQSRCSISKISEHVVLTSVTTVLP

[1] = membranes of recombinant CHO cells expressing OX1, 0.2 nM [125I]-OX-A, read-out: OX1 (IC50)

SMILES | IC50 (OX2; OX2 (IC50) nM) | IC50 (OX1) | IC50 (OX2; read-out: OX2 (IC50)) | IC50 (OX1; [1])
Cc1ncc(OC[C@@]2(c3cccc(F)c3)C[C@H]2C(=O)Nc2ccc(F)cn2)c(CO)n1 [Example 286, (1R,2S)-2-(3-fluorophenyl)-N-(5-fluoropyridin-2-yl)-2-{[(4-hydroxymethyl-2-methylpyrimidin-5-yl)oxy]methyl}-2-(3-fluorophenyl)cyclopropanecarboxamide] | 4.5 nM | > 0.2 µM | – | –
COc1cc(NC(=O)[C@@H]2C[C@@]2(COc2cnc(C)nc2C)c2cccc(F)c2)ncc1F [Example 94, (1R,2S)-2-{[(2,4-dimethylpyrimidin-5-yl)oxy]methyl}-N-(5-fluoro-4-methoxypyridin-2-yl)-2-(3-fluorophenyl)cyclopropanecarboxamide] | 2.3 nM | 0.0028 µM | – | –
COc1cccc(NC(=O)[C@@H]2C[C@@]2(COc2cnc(C)nc2C)c2ccccc2)c1 [Example 36, (1R,2S)-2-{[(2,4-dimethylpyrimidin-5-yl)oxy]methyl}-N-(3-methoxyphenyl)-2-phenylcyclopropanecarboxamide] | – | – | 3 nM | 0.009 µM
Cc1ncc(OC[C@@]2(c3ccccc3)C[C@H]2C(=O)Nc2ccc(F)c(F)c2)c(C)n1 [Example 30] | – | – | 12 nM | 0.078 µM
Cc1nc(C)c(OC[C@@]2(c3cccc(F)c3)C[C@H]2C(=O)Nc2ccc(F)cn2)c(=O)[nH]1 [Example 326, (1R,2S)-2-{[(2,4-dimethyl-6-oxo-1,6-dihydropyrimidin-5-yl)oxy]methyl}-2-(3-fluorophenyl)-N-(5-fluoropyridin-2-yl)cyclopropanecarboxamide] | 6 nM | 0.123 µM | – | –
Cc1ncc(OC[C@@]2(c3ccccc3)C[C@H]2C(=O)Nc2cccc(F)n2)c(C)n1 [Example 68] | 56 nM | 0.14 µM | – | –
Cc1ncc(OC[C@@]2(c3cccc(F)c3)C[C@H]2C(=O)Nc2ccccc2)c(C)n1 [Example 93, (1R,2S)-2-{[(2,4-dimethylpyrimidin-5-yl)oxy]methyl}-2-(3-fluorophenyl)-N-phenylcyclopropanecarboxamide] | 9 nM | 0.054 µM | – | –
Cc1ncc(OC[C@@]2(c3ccccc3)C[C@H]2C(=O)Nc2cc(C(F)(F)F)ccn2)c(C)n1 [Example 10] | – | – | 31 nM | 0.228 µM
Cc1ncc(OC[C@@]2(c3ccccc3)C[C@H]2C(=O)Nc2ncc(C)s2)c(C)n1 [Example 2] | – | – | 19 nM | 0.296 µM
Cc1ccc(NC(=O)[C@@H]2C[C@@]2(COc2cnc(C)nc2C)c2ccccc2)nc1 [Example 69] | 34 nM | 0.126 µM | – | –
Cc1ncc(OC[C@@]2(c3ccc(F)cc3)C[C@H]2C(=O)Nc2ccccn2)c(C)n1 [Example 110] | 110 nM | 0.34 µM | – | –
CCc1nc(C)ncc1OC[C@@]1(c2ccccc2)C[C@H]1C(=O)Nc1cc(C)c(F)cn1 [Example 122] | – | – | 7 nM | < 0.02 µM
CCc1nc(C)ncc1OC[C@@]1(c2ccccc2)C[C@H]1C(=O)Nc1ccc(F)cc1 [Example 318] | – | – | 11 nM | 0.135 µM
Cc1ncc(OC[C@@]2(c3cccc(F)c3)C[C@H]2C(=O)Nc2ccc(F)cn2)c(C)[n+]1[O-] [Example 285] | 16 nM | 0.077 µM | – | –
Cc1ncc(OC[C@@]2(c3cccc(C(F)(F)F)c3)C[C@H]2C(=O)Nc2ccc(F)cn2)c(C)n1 [Example 266, (1R,2S)-2-{[(2,4-dimethylpyrimidin-5-yl)oxy]methyl}-N-(5-fluoropyridin-2-yl)-2-(3-trifluoromethylphenyl)cyclopropanecarboxamide] | 2.7 nM | 0.03 µM | – | –
Cc1ncc(OC[C@@]2(c3cccc(I)c3)C[C@H]2C(=O)Nc2ccc(F)cn2)c(C)n1 [Example 283, (1R,2S)-2-{[(2,4-dimethylpyrimidin-5-yl)oxy]methyl}-N-(5-fluoropyridin-2-yl)-2-(3-iodophenyl)cyclopropanecarboxamide] | 9 nM | 0.172 µM | – | –
Cc1ncc(N(C)C[C@@]2(c3ccccc3)C[C@H]2C(=O)Nc2cc(C)c(F)cn2)c(C)n1 [Example 299] | – | – | 46 nM | 0.304 µM
Cc1ncc(N(C)C[C@@]2(c3ccccc3)C[C@H]2C(=O)Nc2cc(C)c(Cl)cn2)c(C)n1 [Example 301] | – | – | 28 nM | 0.175 µM
COc1cncc(NC(=O)[C@@H]2C[C@@]2(COc2cnc(C)nc2C)c2ccc(F)cc2)c1 [Example 112] | – | – | 18 nM | 1.02 µM

SMILES | IC50 (OX2; OX2 (IC50) nM) | IC50 (OX1) | IC50 (OX2; read-out: OX2 (IC50)) | IC50 (OX1; [1])
Cc1ncc(OC[C@@]2(c3cccs3)C[C@H]2C(=O)Nc2ccc(F)cn2)c(C)n1 [Example 268] | 36 nM | 0.164 µM | – | –
Cc1ncc(OC[C@@]2(c3ccccc3)C[C@H]2C(=O)Nc2cc(Cl)cc(C#N)c2)c(C)n1 [Example 35] | – | – | 43 nM | 0.558 µM
Cc1ncc(OCC2(c3cccc(Cl)c3)CC2C(=O)Nc2cccnc2)c(C)n1 (stereo not shown) [Example 157] | 69 nM | 0.397 µM | – | –
CCc1nc(C)ncc1OC[C@@]1(c2cccc(F)c2)C[C@H]1C(=O)Nc1ccc(F)cn1 [Example 241, (1R,2S)-2-{[(4-ethyl-2-methylpyrimidin-5-yl)oxy]methyl}-2-(3-fluorophenyl)-N-(5-fluoropyridin-2-yl)cyclopropanecarboxamide] | 2.2 nM | 0.002 µM | – | –
COc1cc(NC(=O)[C@@H]2C[C@@]2(COc2cnc(C)nc2C)c2cc(F)cc(F)c2)ncc1F [Example 138, (1R,2S)-2-(3,5-difluorophenyl)-2-{[(2,4-dimethylpyrimidin-5-yl)oxy]methyl}-N-(5-fluoro-4-methoxypyridin-2-yl)cyclopropanecarboxamide] | – | – | 2.4 nM | 0.0026 µM
Cc1ncc(OC[C@@]2(c3ccccc3)C[C@H]2C(=O)Nc2cccc(Cl)n2)c(C)n1 [Example 12] | – | – | 53 nM | 0.247 µM
COc1cc(NC(=O)[C@@H]2C[C@@]2(COc2cnc(C)nc2C)c2ccccc2)ccn1 [Example 72] | – | – | 31 nM | 0.202 µM
Cc1ncc(OC[C@@]2(c3ccccc3)C[C@H]2C(=O)Nc2cnc(Cl)c(C(F)(F)F)c2)c(C)n1 [Example 60] | – | – | 105 nM | > 2 µM
Cc1ncc(N(C)C[C@@]2(c3cccc(F)c3)C[C@H]2C(=O)Nc2cc(C)c(F)cn2)c(C)n1 [Example 293] | – | – | 9 nM | 0.079 µM
Cc1ncc(OC[C@@]2(c3ccccc3)C[C@H]2C(=O)Nc2cccc(-c3nnc[nH]3)c2)c(C)n1 [Example 38] | – | – | 29 nM | 0.518 µM
Cc1ncc(OC[C@@]2(c3ccccc3)C[C@H]2C(=O)Nc2ccccc2F)c(C)n1 [Example 78] | 94 nM | 0.662 µM | – | –
Cc1ncc(OC[C@@]2(c3ccccc3)C[C@H]2C(=O)Nc2cccc(C#N)c2)c(C)n1 [Example 80] | 16 nM | 0.054 µM | – | –
Cc1cc(NC(=O)[C@@H]2C[C@@]2(COc2cnc(C)nc2C)c2ccccc2)ccn1 [Example 28] | – | – | 101 nM | 1.7 µM
Cc1ncc(OC[C@@]2(c3ccc(F)c(F)c3)C[C@H]2C(=O)Nc2ccc(F)cn2)c(C)n1 [Example 169, (1R,2S)-2-(3,4-difluorophenyl)-2-{[(2,4-dimethylpyrimidin-5-yl)oxy]methyl}-N-(5-fluoropyridin-2-yl)cyclopropanecarboxamide] | 4 nM | 0.014 µM | – | –
CCc1nc(C)ncc1OC[C@@]1(c2ccc(F)cc2)C[C@H]1C(=O)Nc1ccccn1 [Example 245, (1R,2S)-2-{[(4-ethyl-2-methylpyrimidin-5-yl)oxy]methyl}-2-(4-fluorophenyl)-N-(pyridin-2-yl)cyclopropanecarboxamide] | 10 nM | 0.064 µM | – | –
Cc1ccc(C2(COc3cnc(C)nc3C)CC2C(=O)Nc2ccc(F)cn2)cc1 (stereo not shown) [Example 174] | 55 nM | 0.033 µM | – | –
COCc1nc(C)ncc1OC[C@@]1(c2cccc(F)c2)C[C@H]1C(=O)Nc1ccc(F)cc1F [Example 196, (1R,2S)-N-(2,4-difluorophenyl)-2-(3-fluorophenyl)-2-{[(4-methoxymethyl-2-methylpyrimidin-5-yl)oxy]methyl}cyclopropanecarboxamide] | – | – | 4 nM | 0.009 µM
Cc1ncc(OC[C@@]2(c3ccc(F)c(F)c3)C[C@H]2C(=O)Nc2ccc(Cl)cn2)c(C)n1 [Example 168, (1R,2S)-N-(5-chloropyridin-2-yl)-2-(3,4-difluorophenyl)-2-{[(2,4-dimethylpyrimidin-5-yl)oxy]methyl}cyclopropanecarboxamide] | 4 nM | 0.015 µM | – | –
Cc1ncc(OC[C@@]2(c3cccc(F)c3)C[C@H]2C(=O)Nc2ccncc2)c(C)n1 [Example 90] | 95 nM | 2.06 µM | – | –
